Laboratory results as given in PubChem BioAssay AID248 (DTP/NCI, 2004).
Several values for one entry are separate records, joined by “and”; a condition that tells them apart may be missing. Equal values may be shown once. Inconclusive results and toxic doses are left out. Rule as the data show it: active = T/C of 150% or more; inactive = T/C below 125%.

Tested on: L1210 leukemia ip in BDF1 mice, survival T/C
Assay: NCI In Vivo Anticancer Drug Screen. Data for tumor model L1210 Leukemia (intraperitoneal) in B6D2F1 (BDF1) mice
Conditions: endpoint: mean survival time, higher = longer survival
In short: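 Tumor cells were implanted, animals were treated, and survival was followed. The result divides the treated measurement by the vehicle-control measurement.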

[1] = dose: 25.0 mg/kg/injection, schedule: Q01DX009 (ip), vehicle: saline
[2] = dose: 100.0 mg/kg/injection, schedule: Q01DX009 (ip), vehicle: saline
[3] = dose: 100.0 mg/kg/injection, schedule: Q04DX003 (ip), vehicle: saline
[4] = dose: 200.0 mg/kg/injection, schedule: Q04DX003 (ip), vehicle: saline
[5] = dose: 400.0 mg/kg/injection, schedule: Q04DX003 (ip), vehicle: saline
[6] = dose: 100.0 mg/kg/injection, schedule: Q01DX009 (ip), vehicle: saline with Tween-80
[7] = dose: 100.0 mg/kg/injection, schedule: Q04DX003 (ip), vehicle: saline with Tween-80
[8] = dose: 200.0 mg/kg/injection, schedule: Q01DX009 (ip), vehicle: saline with Tween-80
[9] = dose: 200.0 mg/kg/injection, schedule: Q04DX003 (ip), vehicle: saline with Tween-80
[10] = dose: 400.0 mg/kg/injection, schedule: Q01DX009 (ip), vehicle: saline with Tween-80
[11] = dose: 400.0 mg/kg/injection, schedule: Q04DX003 (ip), vehicle: saline with Tween-80
[12] = dose: 100.0 mg/kg/injection, schedule: Q01DX001 (ip), vehicle: saline
[13] = dose: 200.0 mg/kg/injection, schedule: Q01DX001 (ip), vehicle: saline
[14] = dose: 400.0 mg/kg/injection, schedule: Q01DX001 (ip), vehicle: saline
[15] = dose: 75.0 mg/kg/injection, schedule: Q01DX001 (ip), vehicle: saline

Measured: T/C

COC(=O)C1=C(NC(=O)Nc2ccc(Cl)cc2)OC(C)(C)C1c1ccc(Cl)cc1 (stereo unspecified)
inactive: dose: 12.5 mg/kg/injection, schedule: Q01DX001 (ip), vehicle: saline 92 % of control | dose: 12.5 mg/kg/injection, schedule: Q01DX009 (ip), vehicle: saline 86 % of control | dose: 12.5 mg/kg/injection, schedule: Q04DX003 (ip), vehicle: acetone 93 % of control | dose: 25.0 mg/kg/injection, schedule: Q01DX001 (ip), vehicle: saline 87 % of control | [1] 90 % of control | dose: 25.0 mg/kg/injection, schedule: Q04DX003 (ip), vehicle: acetone 100 % of control | dose: 50.0 mg/kg/injection, schedule: Q01DX001 (ip), vehicle: saline 86 % of control | dose: 50.0 mg/kg/injection, schedule: Q04DX003 (ip), vehicle: acetone 96 % of control

C1=CC2(OCCO2)C2CC=CC3(OCCO3)C2C1 (stereo unspecified)
inactive: [2] 113 % of control | [3] 109 % of control | [4] 98 % of control | [5] 109 % of control

CCOc1ccccc1/C=C1\C=C(CC)SC1=O
inactive: dose: 100.0 mg/kg/injection, schedule: Q01DX001 (ip), vehicle: saline with Tween-80 91 % of control | dose: 200.0 mg/kg/injection, schedule: Q01DX001 (ip), vehicle: saline with Tween-80 94 % of control | dose: 400.0 mg/kg/injection, schedule: Q01DX001 (ip), vehicle: saline with Tween-80 91 % of control

CCNC(C)(C)C(SSSC(c1ccc(Cl)cc1)C(C)(C)NCC)c1ccc(Cl)cc1 (stereo unspecified)
inactive: dose: 50.0 mg/kg/injection, schedule: Q01DX009 (ip), vehicle: Klucel (hydroxypropylcellulose) (HPC) 94 % of control | dose: 100.0 mg/kg/injection, schedule: Q01DX009 (ip), vehicle: Klucel (hydroxypropylcellulose) (HPC) 91 % of control | dose: 100.0 mg/kg/injection, schedule: Q01DX009 (ip), vehicle: other 89 % of control

NC(=S)c1ccncc1
inactive: [6] 104 % of control | [7] 103 % of control | [8] 104 % of control | [9] 109 % of control | [10] 112 % of control | [11] 101 % of control

CCCCCCOC(=O)C1(C)OC1c1ccccc1 (stereo unspecified)
inactive: dose: 100.0 mg/kg/injection, schedule: Q04DX002 (ip), vehicle: saline 112 % of control | dose: 200.0 mg/kg/injection, schedule: Q04DX002 (ip), vehicle: saline 104 % of control | dose: 400.0 mg/kg/injection, schedule: Q04DX002 (ip), vehicle: saline 93 % of control

CC(C)(CCCl)NCc1ccccc1
inactive: [1] 101 % of control | dose: 50.0 mg/kg/injection, schedule: Q01DX009 (ip), vehicle: saline 104 % of control | [2] 88 % of control | [3] 99 % of control

CCCCCCCCCCCCCCC[n+]1cccc(C#N)c1
inactive: dose: 5.0 mg/kg/injection, schedule: Q01DX009 (ip), vehicle: saline 104 % of control | dose: 10.0 mg/kg/injection, schedule: Q01DX001 (ip), vehicle: saline 87 % of control | dose: 10.0 mg/kg/injection, schedule: Q01DX009 (ip), vehicle: saline 96 % of control | dose: 10.0 mg/kg/injection, schedule: Q04DX003 (ip), vehicle: saline 90 % of control | dose: 20.0 mg/kg/injection, schedule: Q01DX001 (ip), vehicle: saline 95 % of control and 86 % of control | dose: 20.0 mg/kg/injection, schedule: Q01DX009 (ip), vehicle: saline 107 % of control | dose: 20.0 mg/kg/injection, schedule: Q04DX003 (ip), vehicle: saline 95 % of control | dose: 40.0 mg/kg/injection, schedule: Q01DX001 (ip), vehicle: saline 101 % of control and 90 % of control | dose: 40.0 mg/kg/injection, schedule: Q04DX003 (ip), vehicle: saline 94 % of control

C=C(C)C1C=CC(O)=C2C(=O)CCC(C)C21C (stereo unspecified)
inactive: dose: 25.0 mg/kg/injection, schedule: Q04DX003 (ip), vehicle: saline 100 % of control | dose: 50.0 mg/kg/injection, schedule: Q04DX003 (ip), vehicle: saline 100 % of control | [3] 100 % of control

N=C1c2ccccc2-c2ccccc21
inactive: [7] 96 % of control | [9] 88 % of control

CC(=O)OC1CCCOC1OC(C)=O (stereo unspecified)
inactive: [12] 99 % of control | [2] 106 % of control | [13] 100 % of control | dose: 200.0 mg/kg/injection, schedule: Q01DX009 (ip), vehicle: saline 100 % of control | [14] 94 % of control | dose: 400.0 mg/kg/injection, schedule: Q01DX009 (ip), vehicle: saline 95 % of control

NC(CCCCN=Cc1ccccc1O)C(=O)O (stereo unspecified)
inactive: [12] 95 % of control | [13] 92 % of control | [14] 91 % of control

CN(C(N)=O)C1CCCC1
inactive: [3] 96 % of control | [4] 91 % of control | [5] 96 % of control

CCC1C(=O)NCCNC1=O
inactive: [15] 106 % of control | dose: 150.0 mg/kg/injection, schedule: Q01DX001 (ip), vehicle: saline 93 % of control | dose: 300.0 mg/kg/injection, schedule: Q01DX001 (ip), vehicle: saline 96 % of control

COC1OC(OC)[CH]([Hg][Cl])C1OC (stereo unspecified)
inactive: dose: 3.13 mg/kg/injection, schedule: Q01DX009 (ip), vehicle: saline with Tween-80 94 % of control | dose: 6.25 mg/kg/injection, schedule: Q01DX009 (ip), vehicle: saline with Tween-80 92 % of control | dose: 6.25 mg/kg/injection, schedule: Q04DX003 (ip), vehicle: saline 100 % of control | dose: 12.5 mg/kg/injection, schedule: Q01DX009 (ip), vehicle: saline with Tween-80 91 % of control | dose: 12.5 mg/kg/injection, schedule: Q04DX003 (ip), vehicle: saline 100 % of control

NC(CCC(=O)Nc1cccc2ccccc12)C(=O)O (stereo unspecified)
inactive: [7] 105 % of control | [9] 100 % of control | [11] 106 % of control

c1ccc(Cn2ccnc2)cc1
inactive: dose: 3.12 mg/kg/injection, schedule: Q01DX009 (ip), vehicle: water 106 % of control | dose: 6.25 mg/kg/injection, schedule: Q01DX009 (ip), vehicle: water 117 % of control | dose: 12.5 mg/kg/injection, schedule: Q01DX009 (ip), vehicle: water 107 % of control | dose: 25.0 mg/kg/injection, schedule: Q01DX009 (ip), vehicle: water 104 % of control and 108 % of control | dose: 50.0 mg/kg/injection, schedule: Q01DX009 (ip), vehicle: water 96 % of control | [15] 103 % of control

C=C1C(=O)C2(C)OC2(C)C1C(=O)O (stereo unspecified)
inactive: dose: 1.25 mg/kg/injection, schedule: Q01DX009 (ip), vehicle: Klucel (hydroxypropylcellulose) (HPC) 94 % of control | dose: 2.5 mg/kg/injection, schedule: Q01DX009 (ip), vehicle: Klucel (hydroxypropylcellulose) (HPC) 100 % of control | dose: 5.0 mg/kg/injection, schedule: Q01DX009 (ip), vehicle: Klucel (hydroxypropylcellulose) (HPC) 105 % of control | dose: 10.0 mg/kg/injection, schedule: Q01DX009 (ip), vehicle: Klucel (hydroxypropylcellulose) (HPC) 101 % of control

Cc1cc(Br)ccc1N
inactive: [6] 99 % of control | [8] 95 % of control | [10] 99 % of control
